Common to all, as to test: biochemical
What all share (design): KINOMEscan competition binding panel (Eurofins DiscoverX), single concentration, percent inhibition
Details in all cases: read-out: 15 at 1 µM % inhibition

Assay [1] deals with T1, ABL1(T315I)-nonphosphorylated (Homo sapiens, UniProt P00519, T315I).
T1 construct: nonphosphorylated
How it is done: (§1) KinomeScan® Assay on 7 and 15 was performed as previously described by EuroFins DiscoverX [24]. GSK114 (7) and 15 were submitted for a KINOMEscan® assay to explore the selectivity profile across >400 human kinases at a compound concentration of 1 µM. […] GSK114 (7) is a narrow-spectrum TNNi3K inhibitor but has some potent off-targets including GAK which has been previously reported for this chemotype. […] If utilized together this set of compounds could be useful to investigate TNNi3K biology.

Another assay has as its target FGFR3 (Homo sapiens, UniProt P22607). The protocol: as §1
The next assay addresses ACVR2B (Homo sapiens, UniProt Q13705). The protocol: as §1
A further assay addresses GRK4 (Homo sapiens, UniProt P32298). The protocol: as §1
For the next assay, the target named is CLK1 (Homo sapiens, UniProt P49759). How it is done: as §1
A further assay addresses BLK (Homo sapiens, UniProt P51451). How it is done:
as §1

A further assay has as its target T2, ERK8 (Homo sapiens, UniProt Q8TD08).
T2 construct: gene MAPK15
How it is done:
as §1

The target in a further assay is CHEK1 (Homo sapiens, UniProt O14757). The protocol: as §1
For a further assay, the target named is T3, BRK (Homo sapiens, UniProt Q13882).
T3 construct: gene PTK6
The protocol:
as §1

For the next assay, the target named is BMX (Homo sapiens, UniProt P51813). How it is done: as §1
In a further assay the target is EGFR(L861Q) (Homo sapiens, UniProt P00533, L861Q). How it is done:
as §1

For another assay, the target named is RET(V804L) (Homo sapiens, UniProt P07949, V804L). The protocol: as §1
Another assay concerns the target T4, ABL1-phosphorylated (Homo sapiens, UniProt P00519).
T4 construct: phosphorylated
How it is done: as §1

The next assay has as its target T5, MST1 (Homo sapiens, UniProt Q13043).
T5 construct: gene STK4
How it is done:
as §1

Another assay has as its target AKT1 (Homo sapiens, UniProt P31749). The protocol:
as §1

The next assay addresses T6, TRKB (Homo sapiens, UniProt Q16620).
T6 construct: gene NTRK2
The protocol: as §1

The target in the next assay is T7, VEGFR2 (Homo sapiens, UniProt P35968).
T7 construct: gene KDR
The protocol: as §1

For the next assay, the target named is RET(V804M) (Homo sapiens, UniProt P07949, V804M). How it is done: as §1
Another assay concerns the target PRKD1 (Homo sapiens, UniProt Q15139). How it is done: as §1
For assay [2], the target named is T8, TYK2(JH1domain-catalytic) (Homo sapiens, UniProt P29597).
T8 construct: JH1domain-catalytic
The protocol: as §1

Another assay has as its target T9, MST2 (Homo sapiens, UniProt Q13188).
T9 construct: gene STK3
How it is done: as §1

Another assay has as its target NLK (Homo sapiens, UniProt Q9UBE8). The protocol:
as §1

The next assay addresses T10, MKK7 (Homo sapiens, UniProt O14733).
T10 construct: gene MAP2K7
How it is done:
as §1

The next assay addresses FYN (Homo sapiens, UniProt P06241). How it is done: as §1

T6 sequence (Q16620 whole entry): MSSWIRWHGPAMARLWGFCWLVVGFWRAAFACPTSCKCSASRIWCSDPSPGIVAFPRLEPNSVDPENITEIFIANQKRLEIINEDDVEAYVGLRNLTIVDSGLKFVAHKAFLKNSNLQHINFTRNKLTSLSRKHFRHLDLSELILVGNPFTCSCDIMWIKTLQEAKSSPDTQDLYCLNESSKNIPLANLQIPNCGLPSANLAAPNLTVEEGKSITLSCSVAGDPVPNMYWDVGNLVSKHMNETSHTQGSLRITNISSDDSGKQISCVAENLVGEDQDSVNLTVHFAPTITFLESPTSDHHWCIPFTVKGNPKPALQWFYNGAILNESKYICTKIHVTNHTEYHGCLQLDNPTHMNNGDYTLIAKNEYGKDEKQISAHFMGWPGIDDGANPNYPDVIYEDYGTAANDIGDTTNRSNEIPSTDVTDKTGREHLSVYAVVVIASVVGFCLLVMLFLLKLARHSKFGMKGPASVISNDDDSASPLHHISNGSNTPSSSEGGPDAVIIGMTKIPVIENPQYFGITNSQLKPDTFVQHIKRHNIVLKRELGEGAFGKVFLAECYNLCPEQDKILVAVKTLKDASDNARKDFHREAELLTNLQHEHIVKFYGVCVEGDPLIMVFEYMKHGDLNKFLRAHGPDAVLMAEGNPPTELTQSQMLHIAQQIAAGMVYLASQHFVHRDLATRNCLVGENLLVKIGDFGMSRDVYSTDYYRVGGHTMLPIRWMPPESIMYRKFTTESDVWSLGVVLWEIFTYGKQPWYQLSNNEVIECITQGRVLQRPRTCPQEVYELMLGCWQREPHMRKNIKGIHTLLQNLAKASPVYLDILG
ACVR2B, sequence (Q13705 whole entry): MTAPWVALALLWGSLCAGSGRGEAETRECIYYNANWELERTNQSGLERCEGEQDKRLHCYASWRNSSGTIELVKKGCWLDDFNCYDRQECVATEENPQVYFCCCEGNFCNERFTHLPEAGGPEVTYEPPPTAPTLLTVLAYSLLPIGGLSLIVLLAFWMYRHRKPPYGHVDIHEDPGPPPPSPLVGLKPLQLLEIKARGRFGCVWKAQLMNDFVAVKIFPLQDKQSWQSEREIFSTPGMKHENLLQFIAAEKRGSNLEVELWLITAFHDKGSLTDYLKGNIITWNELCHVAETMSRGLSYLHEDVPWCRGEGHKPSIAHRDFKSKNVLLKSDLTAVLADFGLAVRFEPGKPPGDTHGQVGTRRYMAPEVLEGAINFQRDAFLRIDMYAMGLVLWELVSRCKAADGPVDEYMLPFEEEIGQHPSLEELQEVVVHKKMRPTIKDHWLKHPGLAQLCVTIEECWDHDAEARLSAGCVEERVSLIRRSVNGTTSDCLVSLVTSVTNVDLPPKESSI
AKT1, sequence (P31749 whole entry): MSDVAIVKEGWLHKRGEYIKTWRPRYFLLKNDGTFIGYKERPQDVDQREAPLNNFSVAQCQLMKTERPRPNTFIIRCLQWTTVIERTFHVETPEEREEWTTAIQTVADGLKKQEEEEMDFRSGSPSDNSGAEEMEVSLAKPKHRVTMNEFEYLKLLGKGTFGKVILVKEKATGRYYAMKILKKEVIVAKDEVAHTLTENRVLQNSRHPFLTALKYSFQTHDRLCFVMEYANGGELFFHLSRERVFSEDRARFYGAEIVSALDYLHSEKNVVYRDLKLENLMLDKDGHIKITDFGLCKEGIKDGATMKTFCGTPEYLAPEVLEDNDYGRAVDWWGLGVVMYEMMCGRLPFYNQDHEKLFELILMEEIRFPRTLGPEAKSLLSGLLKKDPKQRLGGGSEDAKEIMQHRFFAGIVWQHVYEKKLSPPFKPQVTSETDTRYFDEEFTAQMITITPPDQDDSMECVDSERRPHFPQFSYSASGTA
FYN, sequence (P06241 whole entry): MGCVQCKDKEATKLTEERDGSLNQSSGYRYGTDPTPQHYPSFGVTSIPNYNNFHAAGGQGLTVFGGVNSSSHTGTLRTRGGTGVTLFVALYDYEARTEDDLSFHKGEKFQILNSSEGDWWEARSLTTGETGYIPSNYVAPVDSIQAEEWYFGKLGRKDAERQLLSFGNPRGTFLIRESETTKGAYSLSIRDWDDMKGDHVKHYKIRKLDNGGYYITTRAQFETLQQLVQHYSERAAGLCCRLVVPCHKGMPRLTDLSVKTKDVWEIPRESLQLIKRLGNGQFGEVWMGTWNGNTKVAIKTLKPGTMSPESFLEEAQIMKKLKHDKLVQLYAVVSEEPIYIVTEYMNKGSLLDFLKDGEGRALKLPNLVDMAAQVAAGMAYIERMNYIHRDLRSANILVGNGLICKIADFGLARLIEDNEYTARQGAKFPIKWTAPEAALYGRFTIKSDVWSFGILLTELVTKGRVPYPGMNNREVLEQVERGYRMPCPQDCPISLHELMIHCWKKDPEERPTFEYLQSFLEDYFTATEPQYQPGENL
NLK, sequence (Q9UBE8 whole entry): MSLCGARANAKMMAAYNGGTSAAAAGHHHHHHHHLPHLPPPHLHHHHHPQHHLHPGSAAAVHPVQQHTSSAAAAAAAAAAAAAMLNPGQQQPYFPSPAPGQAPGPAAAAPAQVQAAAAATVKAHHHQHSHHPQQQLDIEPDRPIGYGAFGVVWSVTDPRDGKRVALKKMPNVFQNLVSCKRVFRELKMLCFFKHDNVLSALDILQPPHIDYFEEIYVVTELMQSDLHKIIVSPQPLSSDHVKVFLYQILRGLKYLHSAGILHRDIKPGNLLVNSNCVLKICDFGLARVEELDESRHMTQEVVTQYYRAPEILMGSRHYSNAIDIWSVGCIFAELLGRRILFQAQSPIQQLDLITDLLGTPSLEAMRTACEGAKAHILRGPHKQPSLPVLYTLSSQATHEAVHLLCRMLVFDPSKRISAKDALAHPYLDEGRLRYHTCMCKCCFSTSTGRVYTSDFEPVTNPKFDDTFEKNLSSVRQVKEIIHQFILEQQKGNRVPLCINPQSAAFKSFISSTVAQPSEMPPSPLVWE
BMX, sequence (P51813 whole entry): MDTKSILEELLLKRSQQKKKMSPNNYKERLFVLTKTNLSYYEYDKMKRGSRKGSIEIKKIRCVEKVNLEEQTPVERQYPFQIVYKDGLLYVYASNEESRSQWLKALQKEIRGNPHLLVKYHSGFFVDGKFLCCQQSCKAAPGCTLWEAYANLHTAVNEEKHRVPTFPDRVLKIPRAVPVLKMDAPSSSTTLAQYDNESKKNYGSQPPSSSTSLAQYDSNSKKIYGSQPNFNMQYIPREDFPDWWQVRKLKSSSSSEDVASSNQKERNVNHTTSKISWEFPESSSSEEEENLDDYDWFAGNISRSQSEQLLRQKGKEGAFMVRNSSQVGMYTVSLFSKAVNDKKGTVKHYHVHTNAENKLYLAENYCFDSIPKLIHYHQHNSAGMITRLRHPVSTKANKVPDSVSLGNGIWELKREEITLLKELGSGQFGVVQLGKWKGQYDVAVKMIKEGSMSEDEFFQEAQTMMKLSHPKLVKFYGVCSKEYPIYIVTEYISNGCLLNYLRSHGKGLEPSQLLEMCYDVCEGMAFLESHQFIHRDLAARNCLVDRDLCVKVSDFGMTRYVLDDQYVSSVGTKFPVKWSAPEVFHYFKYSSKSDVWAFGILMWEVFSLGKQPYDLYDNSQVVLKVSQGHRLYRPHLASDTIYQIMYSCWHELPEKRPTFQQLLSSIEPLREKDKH
T3 sequence (Q13882 whole entry): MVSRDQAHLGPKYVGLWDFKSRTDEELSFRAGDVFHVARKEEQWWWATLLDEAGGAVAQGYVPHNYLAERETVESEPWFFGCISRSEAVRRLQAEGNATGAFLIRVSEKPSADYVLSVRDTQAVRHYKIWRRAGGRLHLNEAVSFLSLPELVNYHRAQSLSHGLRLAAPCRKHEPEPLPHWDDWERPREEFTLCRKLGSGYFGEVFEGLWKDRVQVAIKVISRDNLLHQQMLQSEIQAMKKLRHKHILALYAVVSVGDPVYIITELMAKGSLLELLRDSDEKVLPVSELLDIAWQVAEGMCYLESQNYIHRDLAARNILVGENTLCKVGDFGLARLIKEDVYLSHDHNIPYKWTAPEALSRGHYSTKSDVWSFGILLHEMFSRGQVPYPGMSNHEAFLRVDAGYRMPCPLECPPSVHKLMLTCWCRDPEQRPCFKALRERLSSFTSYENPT
CHEK1, sequence (O14757 whole entry): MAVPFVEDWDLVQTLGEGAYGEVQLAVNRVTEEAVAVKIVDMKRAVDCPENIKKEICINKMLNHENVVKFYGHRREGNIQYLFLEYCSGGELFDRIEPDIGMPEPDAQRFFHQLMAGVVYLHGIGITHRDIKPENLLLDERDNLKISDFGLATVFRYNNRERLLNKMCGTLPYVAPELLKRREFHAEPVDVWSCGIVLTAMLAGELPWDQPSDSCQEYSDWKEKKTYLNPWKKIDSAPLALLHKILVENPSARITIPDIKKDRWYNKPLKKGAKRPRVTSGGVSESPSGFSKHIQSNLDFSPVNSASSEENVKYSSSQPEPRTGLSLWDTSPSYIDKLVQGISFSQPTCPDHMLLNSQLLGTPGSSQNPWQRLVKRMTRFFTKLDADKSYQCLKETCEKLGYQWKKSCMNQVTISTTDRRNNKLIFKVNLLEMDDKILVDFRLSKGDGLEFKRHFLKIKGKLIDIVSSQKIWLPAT
T2 sequence (Q8TD08 whole entry): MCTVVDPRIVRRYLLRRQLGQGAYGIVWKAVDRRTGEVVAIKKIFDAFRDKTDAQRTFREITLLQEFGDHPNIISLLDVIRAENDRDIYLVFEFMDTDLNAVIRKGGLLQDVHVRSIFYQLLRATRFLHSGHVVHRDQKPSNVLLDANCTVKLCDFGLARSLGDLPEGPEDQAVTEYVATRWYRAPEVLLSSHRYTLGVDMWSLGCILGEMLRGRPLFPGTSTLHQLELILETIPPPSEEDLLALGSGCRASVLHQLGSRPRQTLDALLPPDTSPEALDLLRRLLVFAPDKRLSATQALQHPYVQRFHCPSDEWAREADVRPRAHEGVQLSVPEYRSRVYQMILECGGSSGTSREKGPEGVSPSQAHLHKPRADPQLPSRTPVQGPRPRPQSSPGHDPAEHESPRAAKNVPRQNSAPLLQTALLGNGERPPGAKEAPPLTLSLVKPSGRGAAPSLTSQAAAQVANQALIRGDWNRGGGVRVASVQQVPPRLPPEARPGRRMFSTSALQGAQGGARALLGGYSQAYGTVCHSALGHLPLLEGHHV

As usually defined, the inhibition is the share of the control response that was lost under treatment. In the case of `CNS(=O)(=O)c1ccc(N(C)C)c(Nc2nc(C)nc3cc(OC)c(OC)cc23)c1` [compound 15, 3-((6,7-dimethoxy-2-methylquinazolin-4-yl)amino)-4-(dimethylamino)-N-methylbenzenesulfonamide], the inhibition at 1 µM in assay [1] is 9%; on FGFR3, 1%; on ACVR2B, 0%; on GRK4, 8%; on CLK1 it was 0%; on BLK it was 0%. Also, the inhibition at 1 µM at ERK8 came out at 0%; at CHEK1 it was 1%; on BRK, 0%; at BMX, 10%; on EGFR(L861Q), 0%; at RET(V804L), 0%. Also, the inhibition at 1 µM was found to be 0% at ABL1-phosphorylated; 5% at MST1; 0% at AKT1; 22% at TRKB; 12% at VEGFR2; 0% on RET(V804M). Further, the inhibition at 1 µM on PRKD1 turned out to be 15%; in [2], 0%; on MST2, 4%; at NLK, 0%; at MKK7, 30%; on FYN, 0%.

Values taken from PMC7180948, “New Insights into 4-Anilinoquinazolines as Inhibitors of Cardiac Troponin I–Interacting Kinase (TNNi3K)” (Molecules, 2020).
